Assay results taken from ChEMBL document CHEMBL1153762, “Novel, broad-spectrum anticonvulsants containing a sulfamide group: advancement of N-((benzo[b]thien-3-yl)methyl)sulfamide (JNJ-26990990) into human clinical studies” (J Med Chem, 2009).
The source made the active and inactive calls.

Legend:
Mus musculus [1] = assay: Anticonvulsant activity against pentylenetetrazole-induced seizure in CF1 mouse assessed as increase in threshold of seizure twitch at 107 mg/kg, ip administered 15 mins before pentylenetetrazole infusion; assay type: functional; conditions: route intraperitoneal
[2] = biological target: Sodium channel protein type 2 subunit alpha (Rattus norvegicus) (UniProt P04775); assay: (§1) Inhibition of rat Nav1.2 channel expressed in chinese hamster CHL1610 cells at preconditioning pulse of -67 mV after 2 to 3 mins by whole-cell patch-clamp technique; assay type: cell-based
[3] = biological target: Sodium channel protein type 2 subunit alpha (Rattus norvegicus, UniProt P04775); assay: as §1; assay type: cell-based
[4] = Metabolic stability in mouse liver microsomes assessed as compound remaining at 2 uM after 10 mins; assay type: ADME, Microsome; conditions: read-out: Stability
[5] = biological target: Voltage-dependent N-type calcium channel subunit alpha-1B (Rattus norvegicus) (UniProt Q02294); assay: Inhibition of rat Cav2.2 channel expressed in 5 Hz frequency-stimulated HEK cells at 30 uM by whole-cell patch-clamp technique; assay type: cell-based; conditions: HEK293
Mus musculus [6] = assay: Anticonvulsant activity against pentylenetetrazole-induced seizure in CF1 mouse assessed as increase in threshold of seizure twitch at 182 mg/kg, ip administered 15 mins before pentylenetetrazole infusion; assay type: functional; conditions: route intraperitoneal
[7] = biological target: Sodium channel protein type 2 subunit alpha (Rattus norvegicus) (UniProt P04775); assay: Inhibition of rat Nav1.2 channel expressed in chinese hamster CHL1610 cells at preconditioning pulse of -107 mV after 2 to 3 mins by whole-cell patch-clamp technique; assay type: cell-based
Mus musculus [8] = assay: Anticonvulsant activity against maximal electroshock-induced seizure in po dosed CF1 mouse after 1 hr; assay type: functional; conditions: Mus musculus, CF1, po, 1 h; read-out: ED50
[9] = Metabolic stability in human liver microsomes assessed as compound remaining at 2 uM after 10 mins; assay type: ADME, Microsome; conditions: read-out: Stability
Plasma [10] = assay: Metabolic stability in rat plasma assessed as formation of benzothiophene-3-carboxylic acid at 59.2 kBq/mg, po after 4 hrs by MS/MS analysis; assay type: ADME, organism-based; conditions: in vivo
[11] = Metabolic stability in rat urine assessed as formation of N-[(1-oxido-1-benzothien-3-yl)methyl]sulfamide at 59.2 kBq/mg, po after 24 hrs by MS/MS analysis; assay type: ADME, organism-based; conditions: in vivo
[12] = Bioavailability in rat at 10 mg/kg, po; assay type: ADME, organism-based; conditions: in vivo
Mus musculus [13] = assay: Anticonvulsant activity against pentylenetetrazole-induced seizure in ip dosed CF1 mouse after 0.25 hrs; assay type: functional; conditions: Mus musculus, CF1, ip, 0.25 h; read-out: ED50
[14] = biological target: Voltage-dependent N-type calcium channel subunit alpha-1B (Rattus norvegicus) (UniProt Q02294); assay: Inhibition of rat Cav2.2 channel expressed in HEK cells assessed as depolarization-induced calcium influx by fluorescence-based assay; assay type: cell-based; conditions: HEK293
[15] = Half life in human liver microsomes at 2 uM; assay type: ADME, Microsome
[16] = biological target: Voltage-dependent N-type calcium channel subunit alpha-1B (Rattus norvegicus) (UniProt Q02294); assay: Inhibition of rat Cav2.2 channel expressed in 0.07 Hz frequency-stimulated HEK cells at 30 uM by whole-cell patch-clamp technique; assay type: cell-based; conditions: HEK293
Mus musculus [17] = assay: Anticonvulsant activity against pentylenetetrazole-induced seizure in CF1 mouse assessed as increase in seizure threshold for clonus at 182 mg/kg, ip administered 15 mins before pentylenetetrazole infusion; assay type: functional; conditions: route intraperitoneal
[18] = Clearance in mouse at 30 mg/kg, po and 3 mg/kg, iv administered as bolus dose; assay type: ADME, organism-based; conditions: in vivo
[19] = Metabolic stability in rat urine assessed as formation of [(Benzo[b]thiophene-3-carbonyl)-amino]-acetic acid at 59.2 kBq/mg, po after 8 to 24 hrs by MS/MS analysis; assay type: ADME, organism-based; conditions: in vivo
[20] = Volume of distribution at steady state in mouse at 30 mg/kg, po and 3 mg/kg, iv administered as bolus dose; assay type: ADME, organism-based; conditions: in vivo, read-out: Vdss
[21] = Drug level in rat brain at 30 mg/kg, po after 2 hrs by LC/MS analysis; assay type: ADME, organism-based; parameters: dose 30 mg/kg, route oral; conditions: read-out: Drug uptake
Mus musculus [22] = assay: Anticonvulsant activity against bicuculline-induced seizure in ip dosed CF1 mouse after 0.25 hrs; assay type: functional; conditions: Mus musculus, CF1, ip, 0.25 h; read-out: ED50
Mus musculus [23] = assay: Anticonvulsant activity against pentylenetetrazole-induced seizure in CF1 mouse assessed as increase in seizure threshold for clonus at 107 mg/kg, ip administered 15 mins before pentylenetetrazole infusion; assay type: functional; conditions: route intraperitoneal
[24] = Cmax in mouse at 30 mg/kg, po administered as bolus dose; assay type: ADME, organism-based; parameters: dose 30 mg/kg, route oral; conditions: in vivo
Mus musculus [25] = assay: Anticonvulsant activity against picrotoxin-induced seizure in ip dosed CF1 mouse after 0.25 hrs; assay type: functional
Mus musculus [26] = species on record: Mus musculus; assay: Inhibition of kainate receptor in mouse cortical neuron assessed as inhibition of kainic acid-induced receptor current at 100 uM by whole-cell patch-clamp technique
Mus musculus [27] = assay: Total body water content in mouse at 30 mg/kg, po and 3 mg/kg, iv administered as bolus dose; assay type: ADME, organism-based; conditions: in vivo
Rattus norvegicus [28] = assay: Total body water content in rat at 2 mg/kg, iv; assay type: ADME, organism-based; parameters: dose 2 mg/kg, route intravenous; conditions: in vivo
Mus musculus [29] = assay: Ratio of compound ED50 to topiramate ED50 for anticonvulsant activity against audiogenic seizures in ip dosed AGS mouse; assay type: functional
[30] = Half life in mouse at 3 mg/kg, iv administered as bolus dose; assay type: ADME, organism-based; parameters: dose 3 mg/kg, route intravenous; conditions: in vivo
Rattus norvegicus [31] = assay: Protective index, ratio of TD50 for neurotoxicity in po dosed rat to ED50 for anticonvulsant activity against maximal electroshock-induced seizure in po dosed rat; assay type: functional
Carbonic anhydrase 2 = Carbonic anhydrase 2 (Homo sapiens, UniProt P00918); assay: Inhibition of human carbonic anhydrase 2 by fluorimetric assay
Rattus norvegicus [32] = assay: Anticonvulsant activity against electric stimulation-induced focal seizure in ip dosed Sprague-Dawley rat kindling model assessed as reduction of after-discharge duration administered 15 mins after last electric stimulation measured after 15 mins to 1 hr; assay type: functional; parameters: scale not given: the % may be the effect or the level left
Mus musculus [33] = assay: Anticonvulsant activity against audiogenic seizures in ip dosed AGS mouse assessed as inhibition of hindlimb tonic extension administered 1 hr prior to 11 kHz sound induction; assay type: functional; conditions: Mus musculus, AGS, Hindlimb, ip; read-out: ED50
Plasma [34] = assay: Metabolic stability in rat plasma assessed as formation of N-[(1-oxido-1-benzothien-3-yl)methyl]sulfamide at 59.2 kBq/mg, po after 4 hrs by MS/MS analysis; assay type: ADME, organism-based; conditions: in vivo
[35] = biological target: Potassium voltage-gated channel subfamily KQT member 2 (Rattus norvegicus) (UniProt O88943); assay: Activation of rat Kv7.2 assessed as increase in channel current at membrane potential of -70 to -3- mV at 300 uM by whole-cell patch-clamp technique; assay type: cell membranes
Mus musculus [36] = assay: Anticonvulsant activity against maximal electroshock-induced seizure in po dosed CF1 mouse after 3 hrs; assay type: functional
[37] = Neurotoxicity in po dosed rat assessed as motor impairment by rotarod test; assay type: toxicity, organism-based; conditions: in vivo
Mus musculus [38] = species on record: Mus musculus; assay: Inhibition of NMDA receptor in mouse cortical neuron assessed as inhibition of glycine-induced receptor current at 100 uM by whole-cell patch-clamp technique
[39] = Plasma concentration in rat assessed as unchanged compound remaining at 59.2 kBq/mg, po after 4 hrs by MS/MS analysis; assay type: ADME, organism-based; conditions: read-out: Activity
[40] = Metabolic stability in rat urine assessed as formation of benzothiophene-3-carboxylic acid at 59.2 kBq/mg, po after 8 to 24 hrs by MS/MS analysis; assay type: ADME, organism-based; conditions: in vivo
[41] = Bioavailability in rat at 2 mg/kg, po; assay type: ADME, organism-based; conditions: in vivo
[42] = Bioavailability in mouse at 30 mg/kg, po and 3 mg/kg, iv administered as bolus dose; assay type: ADME, organism-based; conditions: in vivo
Carbonic anhydrase 1 = Carbonic anhydrase 1 (Homo sapiens, UniProt P00915); assay: Inhibition of carbonic anhydrase 1
Plasma [43] = assay: Metabolic stability in rat plasma assessed as formation of biotransformation product N-[(1-oxido-1-benzothien-3-yl)methyl]sulfamide at 500 mg, po up to 72 hrs by MS/MS analysis; assay type: ADME, organism-based; conditions: in vivo
Rattus norvegicus [44] = assay: Anticonvulsant activity against maximal electroshock-induced seizure in po dosed Sprague-Dawley rat after 2 hrs; assay type: functional; conditions: Rattus norvegicus, Sprague-Dawley, po, 2 h; read-out: ED50
[45] = Metabolic stability in rat urine assessed as formation of biotransformation product N-[(1-oxido-1-benzothien-3-yl)methyl]sulfamide at 500 mg, po up to 24 hrs by MS/MS analysis; assay type: ADME, organism-based; conditions: in vivo
[46] = Neurotoxicity in ip dosed mouse assessed as motor impairment by rotarod test; assay type: toxicity, organism-based; conditions: in vivo
[47] = biological target: Voltage-dependent N-type calcium channel subunit alpha-1B (Rattus norvegicus) (UniProt Q02294); assay: (§2) Inhibition of rat Cav2.2 channel expressed in 0.07 Hz frequency-stimulated HEK cells by whole-cell patch-clamp technique; assay type: cell-based; conditions: HEK293
[48] = biological target: Voltage-dependent N-type calcium channel subunit alpha-1B (Rattus norvegicus, UniProt Q02294); assay: as §2; assay type: cell-based, HEK293
Mus musculus [49] = species on record: Mus musculus; assay: Activation of GABA receptor in mouse cortical neuron assessed as increase in GABA-induced receptor current at 100 uM by whole-cell patch-clamp technique
[50] = Ratio of drug level in brain to plasma in rat at 30 mg/kg, po up to 6 hrs; assay type: ADME, organism-based; parameters: dose 30 mg/kg, route oral; conditions: brain and plasma, read-out: BPR
[51] = Half life in mouse at 30 mg/kg, po administered as bolus dose; assay type: ADME, organism-based; parameters: dose 30 mg/kg, route oral; conditions: in vivo
[52] = Plasma concentration in rat at 30 mg/kg, po after 2 hrs by LC/MS analysis; assay type: ADME, organism-based; parameters: dose 30 mg/kg, route oral
[53] = Metabolic stability in rat liver microsomes assessed as compound remaining at 2 uM after 10 mins; assay type: ADME, Microsome; conditions: read-out: Stability

Voltage-dependent N-type calcium channel subunit alpha-1B (Rattus norvegicus), sequence (Q02294 whole entry, looked up, the tested form may be a part): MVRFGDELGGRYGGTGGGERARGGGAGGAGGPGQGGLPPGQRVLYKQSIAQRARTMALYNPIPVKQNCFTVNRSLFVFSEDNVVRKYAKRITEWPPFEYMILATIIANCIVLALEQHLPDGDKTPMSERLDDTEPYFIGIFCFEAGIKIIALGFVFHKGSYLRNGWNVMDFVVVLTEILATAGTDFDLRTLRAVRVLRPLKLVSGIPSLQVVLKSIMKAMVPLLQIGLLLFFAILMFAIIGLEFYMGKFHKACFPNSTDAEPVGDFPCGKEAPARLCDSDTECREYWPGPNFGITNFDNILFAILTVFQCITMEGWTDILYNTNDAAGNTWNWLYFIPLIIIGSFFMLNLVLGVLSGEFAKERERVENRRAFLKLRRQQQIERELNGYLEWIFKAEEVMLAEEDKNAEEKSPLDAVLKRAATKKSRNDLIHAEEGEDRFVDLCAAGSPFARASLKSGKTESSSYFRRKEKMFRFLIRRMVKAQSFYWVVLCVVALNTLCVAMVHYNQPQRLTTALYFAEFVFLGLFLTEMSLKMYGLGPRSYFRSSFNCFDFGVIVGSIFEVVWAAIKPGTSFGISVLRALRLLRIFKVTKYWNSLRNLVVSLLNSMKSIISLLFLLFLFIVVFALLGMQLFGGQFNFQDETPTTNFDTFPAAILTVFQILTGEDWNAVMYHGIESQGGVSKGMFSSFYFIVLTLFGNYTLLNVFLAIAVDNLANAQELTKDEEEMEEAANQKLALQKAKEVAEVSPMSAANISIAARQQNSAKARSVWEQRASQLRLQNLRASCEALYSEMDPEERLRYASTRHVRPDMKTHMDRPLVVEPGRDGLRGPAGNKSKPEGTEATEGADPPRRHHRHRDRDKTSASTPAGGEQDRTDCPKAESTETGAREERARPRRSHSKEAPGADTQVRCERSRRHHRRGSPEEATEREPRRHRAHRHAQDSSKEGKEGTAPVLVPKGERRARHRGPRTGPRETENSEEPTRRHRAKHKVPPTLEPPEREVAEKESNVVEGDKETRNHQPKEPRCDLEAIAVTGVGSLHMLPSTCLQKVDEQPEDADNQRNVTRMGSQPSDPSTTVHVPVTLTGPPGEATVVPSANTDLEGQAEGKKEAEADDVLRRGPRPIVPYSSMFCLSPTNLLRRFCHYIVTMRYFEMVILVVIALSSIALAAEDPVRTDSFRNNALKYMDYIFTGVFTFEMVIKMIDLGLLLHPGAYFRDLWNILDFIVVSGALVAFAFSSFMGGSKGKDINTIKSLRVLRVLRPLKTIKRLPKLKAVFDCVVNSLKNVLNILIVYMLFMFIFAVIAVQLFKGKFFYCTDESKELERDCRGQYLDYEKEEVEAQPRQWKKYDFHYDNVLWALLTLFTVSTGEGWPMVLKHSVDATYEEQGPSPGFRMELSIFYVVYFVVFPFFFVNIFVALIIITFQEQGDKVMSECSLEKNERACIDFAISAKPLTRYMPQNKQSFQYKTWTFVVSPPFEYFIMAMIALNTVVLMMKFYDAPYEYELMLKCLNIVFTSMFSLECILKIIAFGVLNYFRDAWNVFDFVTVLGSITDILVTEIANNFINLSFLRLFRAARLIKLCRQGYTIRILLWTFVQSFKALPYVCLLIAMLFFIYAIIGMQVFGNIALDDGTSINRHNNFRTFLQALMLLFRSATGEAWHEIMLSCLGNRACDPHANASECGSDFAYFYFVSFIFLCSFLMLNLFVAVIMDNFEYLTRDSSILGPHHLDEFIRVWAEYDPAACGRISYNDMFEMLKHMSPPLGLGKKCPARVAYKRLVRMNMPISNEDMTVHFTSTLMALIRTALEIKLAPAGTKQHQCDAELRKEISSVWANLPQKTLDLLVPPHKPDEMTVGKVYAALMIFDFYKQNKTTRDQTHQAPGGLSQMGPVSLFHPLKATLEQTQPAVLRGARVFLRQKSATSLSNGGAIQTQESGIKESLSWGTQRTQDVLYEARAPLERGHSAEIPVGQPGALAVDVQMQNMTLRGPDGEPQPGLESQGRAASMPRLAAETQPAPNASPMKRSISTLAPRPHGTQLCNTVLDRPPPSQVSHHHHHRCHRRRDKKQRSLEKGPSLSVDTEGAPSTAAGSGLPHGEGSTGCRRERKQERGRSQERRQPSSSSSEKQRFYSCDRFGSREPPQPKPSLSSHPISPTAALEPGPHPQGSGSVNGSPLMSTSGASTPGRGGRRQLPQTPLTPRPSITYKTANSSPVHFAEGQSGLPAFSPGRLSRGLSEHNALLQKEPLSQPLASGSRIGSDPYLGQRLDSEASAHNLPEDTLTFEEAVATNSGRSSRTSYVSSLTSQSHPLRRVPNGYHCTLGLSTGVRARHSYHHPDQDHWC
Sodium channel protein type 2 subunit alpha (Rattus norvegicus), sequence (P04775 whole entry, looked up): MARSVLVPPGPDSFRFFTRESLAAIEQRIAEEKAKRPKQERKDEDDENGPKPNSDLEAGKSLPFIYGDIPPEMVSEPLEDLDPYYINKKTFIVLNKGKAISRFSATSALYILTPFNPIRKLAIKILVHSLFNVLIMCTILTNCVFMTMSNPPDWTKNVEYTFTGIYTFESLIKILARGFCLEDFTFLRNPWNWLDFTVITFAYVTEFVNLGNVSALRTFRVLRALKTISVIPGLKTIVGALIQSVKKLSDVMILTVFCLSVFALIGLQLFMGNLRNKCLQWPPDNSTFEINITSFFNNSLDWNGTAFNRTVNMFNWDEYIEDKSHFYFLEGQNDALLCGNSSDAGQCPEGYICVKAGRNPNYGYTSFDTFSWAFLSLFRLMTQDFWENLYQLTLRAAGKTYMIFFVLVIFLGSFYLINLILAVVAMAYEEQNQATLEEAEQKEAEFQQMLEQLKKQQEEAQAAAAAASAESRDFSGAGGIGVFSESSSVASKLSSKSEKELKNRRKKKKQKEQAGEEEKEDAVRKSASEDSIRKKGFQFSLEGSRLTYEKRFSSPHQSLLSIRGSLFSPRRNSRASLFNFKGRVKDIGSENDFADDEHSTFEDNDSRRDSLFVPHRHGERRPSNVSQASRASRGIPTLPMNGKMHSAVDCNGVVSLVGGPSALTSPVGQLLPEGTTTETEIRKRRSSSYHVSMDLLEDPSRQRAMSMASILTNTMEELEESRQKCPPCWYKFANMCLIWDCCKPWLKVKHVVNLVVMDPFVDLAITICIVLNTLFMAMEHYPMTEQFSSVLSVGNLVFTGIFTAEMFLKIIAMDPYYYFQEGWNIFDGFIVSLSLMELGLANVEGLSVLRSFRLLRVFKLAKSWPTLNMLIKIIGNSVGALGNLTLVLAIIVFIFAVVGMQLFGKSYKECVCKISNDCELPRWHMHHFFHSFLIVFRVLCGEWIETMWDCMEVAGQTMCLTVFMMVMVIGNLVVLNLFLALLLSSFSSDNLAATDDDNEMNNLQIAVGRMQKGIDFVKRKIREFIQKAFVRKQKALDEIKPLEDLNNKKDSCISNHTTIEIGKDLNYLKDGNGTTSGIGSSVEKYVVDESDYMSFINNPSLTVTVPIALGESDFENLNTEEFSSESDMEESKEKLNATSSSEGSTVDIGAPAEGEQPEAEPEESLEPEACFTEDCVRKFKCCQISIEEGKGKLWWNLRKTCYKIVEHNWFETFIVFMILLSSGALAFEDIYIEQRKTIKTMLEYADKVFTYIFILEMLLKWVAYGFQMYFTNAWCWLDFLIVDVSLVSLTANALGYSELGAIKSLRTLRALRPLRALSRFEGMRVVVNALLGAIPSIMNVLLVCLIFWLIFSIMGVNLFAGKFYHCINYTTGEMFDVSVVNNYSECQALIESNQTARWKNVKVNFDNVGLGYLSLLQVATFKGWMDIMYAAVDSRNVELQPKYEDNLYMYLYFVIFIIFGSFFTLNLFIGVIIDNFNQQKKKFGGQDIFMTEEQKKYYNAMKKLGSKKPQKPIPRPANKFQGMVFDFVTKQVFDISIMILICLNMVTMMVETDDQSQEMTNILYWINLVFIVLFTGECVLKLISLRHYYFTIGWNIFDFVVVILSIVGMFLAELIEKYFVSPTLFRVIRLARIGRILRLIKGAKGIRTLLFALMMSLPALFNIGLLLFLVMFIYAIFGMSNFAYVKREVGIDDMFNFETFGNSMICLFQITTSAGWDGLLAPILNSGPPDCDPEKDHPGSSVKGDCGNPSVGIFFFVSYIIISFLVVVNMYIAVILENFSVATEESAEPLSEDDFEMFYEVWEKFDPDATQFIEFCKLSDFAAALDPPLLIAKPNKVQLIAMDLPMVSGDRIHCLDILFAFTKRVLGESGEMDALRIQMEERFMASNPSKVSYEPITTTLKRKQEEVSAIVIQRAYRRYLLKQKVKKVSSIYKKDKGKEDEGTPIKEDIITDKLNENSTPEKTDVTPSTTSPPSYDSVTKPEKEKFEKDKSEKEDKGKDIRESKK
Voltage-dependent N-type calcium channel subunit alpha-1B, sequence (Q02294 whole entry): as the sequence (Q02294 whole entry, looked up, the tested form may be a part) above
Carbonic anhydrase 1, sequence (P00915 whole entry): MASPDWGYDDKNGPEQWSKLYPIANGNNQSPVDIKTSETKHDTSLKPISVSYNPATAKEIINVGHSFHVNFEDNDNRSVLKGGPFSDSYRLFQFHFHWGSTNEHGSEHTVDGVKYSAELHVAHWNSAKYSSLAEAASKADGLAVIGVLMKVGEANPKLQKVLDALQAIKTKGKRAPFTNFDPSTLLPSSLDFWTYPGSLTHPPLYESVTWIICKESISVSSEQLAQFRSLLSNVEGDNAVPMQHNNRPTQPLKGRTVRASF
Sodium channel protein type 2 subunit alpha, sequence (P04775 whole entry): as the sequence (P04775 whole entry, looked up) above

In the case of `NS(=O)(=O)NCc1csc2ccccc12`, the Activity (Mus musculus [1]) is reported as 129%, the inhibition [2] is reported as “Dose-dependent effect” and the IC50 [3] is reported as 48 µM. It also gave a remaining at 10 min, 2 µM [4] of 83%, an inhibition [5] of 30% and an Activity (Mus musculus [6]) of 141%. The inhibition [7] was “inactive”, the ED50 (Mus musculus [8]) was 107 mg/kg and the remaining at 10 min, 2 µM [9] was 90%. For the same molecule, the Activity (Plasma [10]) was 9%, the Activity [11] was 48% and the bioavailability [12] was 96%. The ED50 (Mus musculus [13]) was 161 mg/kg, the inhibition [14] was “Dose-dependent effect” and the half-life at 2 µM [15] was > 1.67 h. The inhibition [16] was 20%, the Activity (Mus musculus [17]) was 159% and the clearance [18] was 30 mL/min/kg. For the same molecule, the Activity [19] was 4.2%, the Vd [20] was 2.9 L/kg and the concentration at 2 h [21] was 47 µM. For the same molecule, the ED50 (Mus musculus [22]) was 156 mg/kg, the Activity (Mus musculus [23]) was 147% and the Cmax [24] was 3900 ng/mL. For the same molecule, the ED50 (Mus musculus [25]) was 106 mg/kg, the inhibition (Mus musculus [26]) was 8% and the Activity (Mus musculus [27]) was 725 mL/kg. For the same molecule, the Activity (Rattus norvegicus [28]) was 670 mL/kg, the “Ratio ED50” value (Mus musculus [29]) was 5 and the half-life [30] was 1.5 h. The “Ratio TD50/ED50” value (Rattus norvegicus [31]) was >15, the IC50 (Carbonic anhydrase 2) was 66 µM and the Activity (Rattus norvegicus [32]) was 64%. For the same molecule, the ED50 (Mus musculus [33]) was 21 mg/kg, the Activity (Plasma [34]) was 31% and the Activity [35] was “inactive”. For the same molecule, the ED50 (Mus musculus [36]) was 119 mg/kg, the TD50 [37] was > 500 mg/kg and the inhibition (Mus musculus [38]) was 23%. It also gave a remaining at 4 h [39] of 60%, an Activity [40] of 0.5% and a bioavailability [41] of 89%. For the same molecule, the bioavailability [42] was 59%, the IC50 (Carbonic anhydrase 1) was 25 µM and the Activity (Plasma [43]) was 78%. It also gave an ED50 (Rattus norvegicus [44]) of 34 mg/kg, an Activity [45] of 46% and a TD50 [46] of 182 mg/kg. The inhibition [47] was “Dose-dependent effect”, the IC50 [48] was 133 µM and the inhibition (Mus musculus [49]) was 2%. For the same molecule, the Kp at 6 h [50] was 2.5, the half-life [51] was 1.5 h and the concentration at 2 h [52] was 19 µM. It also gave a remaining at 10 min, 2 µM [53] of 76%.
